Broadly, the IC50 is the point on the concentration scale where inhibition reaches its midpoint. Low values mean higher potency, high ones lower potency.

For this assay, the target named is PIK3CA (human) (UniProt P42336). In words: Inhibition of PIK3CA Kinase Activity.

SMILES strings stand for the structures.

PIK3CA (human), sequence (P42336 whole entry, looked up): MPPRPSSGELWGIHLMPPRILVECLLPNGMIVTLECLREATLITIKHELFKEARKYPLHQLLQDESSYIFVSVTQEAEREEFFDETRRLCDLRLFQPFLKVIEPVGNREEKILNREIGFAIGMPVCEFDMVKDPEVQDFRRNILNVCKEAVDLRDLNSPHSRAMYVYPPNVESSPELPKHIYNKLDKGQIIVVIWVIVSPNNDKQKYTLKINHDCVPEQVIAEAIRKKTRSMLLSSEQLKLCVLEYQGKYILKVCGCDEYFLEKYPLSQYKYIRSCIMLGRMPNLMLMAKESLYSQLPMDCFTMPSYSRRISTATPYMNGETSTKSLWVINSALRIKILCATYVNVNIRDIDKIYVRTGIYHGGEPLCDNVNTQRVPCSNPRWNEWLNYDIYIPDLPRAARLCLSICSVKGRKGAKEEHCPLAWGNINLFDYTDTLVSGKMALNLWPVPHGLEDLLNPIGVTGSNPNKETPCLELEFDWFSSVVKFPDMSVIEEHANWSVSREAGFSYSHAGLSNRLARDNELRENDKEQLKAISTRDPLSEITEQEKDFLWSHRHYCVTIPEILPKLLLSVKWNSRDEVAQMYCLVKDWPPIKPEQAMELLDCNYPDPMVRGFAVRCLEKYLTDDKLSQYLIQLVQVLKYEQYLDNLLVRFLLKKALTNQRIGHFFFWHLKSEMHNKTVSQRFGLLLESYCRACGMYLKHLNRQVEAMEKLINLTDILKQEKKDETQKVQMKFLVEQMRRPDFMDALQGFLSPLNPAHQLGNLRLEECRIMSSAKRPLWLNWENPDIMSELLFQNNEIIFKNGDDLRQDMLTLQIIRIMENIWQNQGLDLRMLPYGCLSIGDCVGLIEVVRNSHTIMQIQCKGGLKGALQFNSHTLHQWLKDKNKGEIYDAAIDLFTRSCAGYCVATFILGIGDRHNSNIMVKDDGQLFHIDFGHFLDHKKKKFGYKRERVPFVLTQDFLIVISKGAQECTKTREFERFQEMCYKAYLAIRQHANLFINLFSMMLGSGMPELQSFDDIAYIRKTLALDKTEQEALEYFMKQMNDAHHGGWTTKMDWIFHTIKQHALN

`Cc1nc2ccc(-c3ccc4c(c3)CN(c3ncnc5cc(F)c(F)cc35)CCO4)cc2[nH]1`: the IC50 is 50 to 250 nM. For `COC(=O)Nc1nc2ccc(-c3ccc4c(c3)CN(c3ccnc5cc(OC)c(OC)cc35)CCO4)cc2[nH]1`, the IC50 was at most 10 nM. `CC1(C)CCc2ncnc(N3CCOc4ccc(-c5cnc(N)c(S(=O)(=O)NCC(O)CO)c5)cc4C3)c2C1` (stereo not drawn) gave an IC50 of 10 to 50 nM. `CCNc1nc2ccc(-c3ccc4c(c3)CN(c3nc(C)nc5cc(OC)ccc35)CCO4)cc2[nH]1` gave an IC50 of at most 10 nM. `COc1ccc2c(N3CCOc4ccc(-c5cnc6[nH]ccc6c5)cc4C3)nc(C)nc2c1` returned an IC50 of 50 to 250 nM.

The molecule `Cc1nc2ccc(-c3ccc4c(c3)CN(c3ncnc5ccc(O)cc35)CCO4)cc2[nH]1` registered an IC50 of 50 to 250 nM. Under `CC[C@H]1CCc2c(ncnc2N2CCOc3ccc(-c4cnc5nc([C@H](C)N)[nH]c5c4)cc3C2)C1` stands 50 to 250 nM. For the molecule `Cc1nc2ccc(-c3ccc4c(c3)CN(c3ncnc5c3CC(C)(C)CC5)CCO4)cc2[nH]1`, the IC50 fell in the range of 10 to 50 nM. The value for `COc1ccc2c(N3CCOc4ccc(-c5ccc6[nH]cnc6c5)cc4C3)nc(CN(C)C)nc2c1` was at most 10 nM. Turning to `Cc1nc2ncc(-c3ccc4c(c3)CN(c3ncnc5c3CCC(C(C)O)C5)CCO4)cc2[nH]1` (stereo not drawn), the IC50 was in the range of 10 to 50 nM. The molecule `CC1(C)CCc2ncnc(N3CCOc4ccc(-c5cnc(N)c(S(=O)(=O)NC[C@H]6C[C@H]7CNC[C@H]7C6)c5)cc4C3)c2C1` registered an IC50 of 50 to 250 nM. Under `CCC1CCc2ncnc(N3CCOc4ccc(-c5cnc6nc(C)[nH]c6c5)cc4C3)c2C1` (stereo not drawn) stands 10 to 50 nM. `Cc1nc2c(F)c(-c3ccc4c(c3)CN(c3nc(CN(C)C)nc5c3CC(C)(C)CC5)CCO4)ccc2[nH]1` came in with an IC50 of 10 to 50 nM. In turn, `Cc1nc2cc(-c3ccc4c(c3)CN(c3nc(CF)nc5c3CC(C)(C)CC5)CCO4)ccc2[nH]1` had an IC50 of 10 to 50 nM. For `CC1(C)CCc2ncnc(N3CCOc4ccc(-c5cnc(N)c(S(=O)(=O)N6CC[C@@H](O)C6)c5)cc4C3)c2C1`, the IC50 is 10 to 50 nM.

The molecule `CC1(C)CCc2ncnc(N3CCOc4ccc(-c5cnc(N)nc5)cc4C3)c2C1` showed an IC50 of 250 to 1000 nM. The value for `Nc1nc2ncc(-c3ccc4c(c3)CN(c3ncnc5cc(Cl)c(Br)cc35)CCO4)cc2[nH]1` was at most 10 nM; that for `CC1(C)CCc2ncnc(N3CCOc4ccc(-c5ccc6nc(NCCF)[nH]c6c5)cc4C3)c2C1` was 10 to 50 nM. `CNS(=O)(=O)c1cc(-c2ccc3c(c2)CN(c2ncnc4c2CC(C)(C)CC4)CCO3)cnc1N` gave a half-maximal inhibitory concentration (IC50) of at most 10 nM. Under `COc1ccc(-c2ccc3c(c2)CN(c2nc(CN(C)C)nc4c2CC(C)(C)CC4)CCO3)cc1S(C)(=O)=O` stands 10 to 50 nM; under `CCc1c(C)nc(CN(C)C)nc1N1CCOc2ccc(-c3cnc4[nH]c(C)nc4c3)cc2C1`, at most 10 nM. `CNCc1nc2ncc(-c3ccc4c(c3)CN(c3ncnc5c3CC(C)(C)CC5)CCO4)cc2[nH]1` yielded an IC50 of 50 to 250 nM. Under `CC1(C)CCc2ncnc(N3CCOc4ccc(-c5ccc6[nH]c(C(F)F)nc6c5)cc4C3)c2C1` stands 10 to 50 nM.

`CC1(C)CCc2ncnc(N3CCOc4ccc(-c5cnc(N)c(S(=O)(=O)N6CC(F)(F)C6)c5)cc4C3)c2C1` yielded an IC50 of 50 to 250 nM. Under `Cc1nc2ccc(-c3ccc4c(c3)CN(c3ncnc5cc(Br)ccc35)CCO4)cc2[nH]1` stands 50 to 250 nM; under `CC1(C)CCc2ncnc(N3CCOc4ccc(-c5cnc(N)c(S(=O)(=O)NC(C)(C)CN)c5)cc4C3)c2C1`, 50 to 250 nM; under `Cn1c(N)nc2cc(-c3ccc4c(c3)CN(c3ccnc5ccccc35)CCO4)ccc21`, 250 to 1000 nM.

In turn, `Cc1ncnc(N2CCOc3ccc(-c4cnc5nc(N)cn5c4)cc3C2)c1Cc1ccc(F)cc1` registered a half-inhibitory concentration (IC50) of 50 to 250 nM.

In turn, `COc1ccc2c(N3CCOc4ccc(-c5ccc6c(c5)CC(=O)N6)cc4C3)nc(C)nc2c1` yielded an IC50 of 250 to 1000 nM. For the molecule `Cc1nc2ccc(-c3ccc4c(c3)CN(c3ncnc5cc(Cl)ccc35)CCO4)cc2[nH]1`, the half-inhibitory concentration (IC50) was 50 to 250 nM. For the molecule `Cc1nc2ncc(-c3ccc4c(c3)CN(c3nc(CNS(C)(=O)=O)nc5c3CC(C)(C)CC5)CCO4)cc2[nH]1`, the IC50 is at most 10 nM. The molecule `COc1ccc2c(N3CCOc4ccc(-c5ccc6[nH]c(C)nc6c5)cc4C3)nc(CN(C)C)nc2c1` displayed an IC50 of at most 10 nM. Molecule `CNc1ncnc(N2CCOc3ccc(-c4cnc5nc(C)[nH]c5c4)cc3C2)c1C` came in with a half-maximal inhibitory concentration (IC50) of 10 to 50 nM. `Cc1nc2ncc(-c3ccc4c(c3)CN(c3ncnc5c3CCC(C)(c3ccccc3)C5)CCO4)cc2[nH]1` (stereo not drawn): the IC50 was 10 to 50 nM. For the molecule `CC1(C)CCc2ncnc(N3CCOc4ccc(-c5cnc(O)c(S(=O)(=O)N6CC[C@H](N)C6)c5)cc4C3)c2C1`, the IC50 fell in the range of 50 to 250 nM.

Molecule `CNS(=O)(=O)c1cc(-c2ccc3c(c2)CN(c2ncnc(C)c2Cc2ccc(F)cc2)CCO3)cnc1N` had a half-maximal inhibitory concentration (IC50) of 50 to 250 nM. Consider `Cc1ccc2ncnc(N3CCOc4ccc(-c5cnc6nc(N)[nH]c6c5)cc4C3)c2c1`, for which the IC50 was at most 10 nM. `Cc1nc2cc(-c3ccc4c(c3)CN(c3nc(CN5CCCC5)nc5c3CC(C)(C)CC5)CCO4)cnc2[nH]1` had an IC50 of at most 10 nM. Take `Cc1nc2ccc(-c3ccc4c(c3)CN(c3ncnc5c(C)cccc35)CCO4)cc2[nH]1`: the IC50 lay in the range of 10 to 50 nM. `Cc1nc2ccc(-c3ccc4c(c3)CN(c3cc(C(C)C)ncn3)CCO4)cc2[nH]1` gave a half-maximal inhibitory concentration (IC50) of 250 to 1000 nM.

`Cc1nc2ncc(-c3ccc4c(c3)CN(c3nc(CNC5CCC5)nc5c3CC(C)(C)CC5)CCO4)cc2[nH]1` showed a concentration for half-maximal inhibition (IC50) of 10 to 50 nM.

`COc1cc2nccc(N3CCOc4ccc(-c5ccc(-c6ncc[nH]6)cc5)cc4C3)c2cc1OC` gave an IC50 of 50 to 250 nM. In turn, `COC(=O)Nc1nc2ccc(-c3ccc4c(c3)CN(c3nc(C)nc5ccccc35)CCO4)cc2[nH]1` had an IC50 of 10 to 50 nM. Turning to `CCC1CCc2ncnc(N3CCOc4ccc(-c5ccc6nc(C)[nH]c6c5)cc4C3)c2C1` (stereo not drawn), the IC50 is 10 to 50 nM.

The molecule `Cc1nc2c(c(N3CCOc4ccc(-c5cnc(N)c(S(=O)(=O)N(C)C)c5)cc4C3)n1)CC(C)(C)CC2` registered a half-inhibitory concentration (IC50) of 50 to 250 nM. In the case of `Cc1nc2ncc(-c3ccc4c(c3)CN(c3nc(CN(C)C5CC5)nc5c3CC(C)(C)CC5)CCO4)cc2[nH]1`, the IC50 lay within 50 to 250 nM. As for `CC(C)(CO)CNS(=O)(=O)c1cc(-c2ccc3c(c2)CN(c2ncnc4c2CC(C)(C)CC4)CCO3)cnc1N`, the half-maximal inhibitory concentration (IC50) fell in the range of 50 to 250 nM. The value for `Cc1ncnc(N2CCOc3ccc(-c4ccc5nc(N)cn5c4)cc3C2)c1Cc1ccc(F)cc1` was 10 to 50 nM. `Cc1ncnc(N2CCOc3ccc(-c4ccc5nc(N)nn5c4)cc3C2)c1Cc1ccc(F)cc1` returned an IC50 of 50 to 250 nM. Under `Cc1nc2ccc(-c3ccc4c(c3)CN(c3ncnc5cc(Cl)c(Br)cc35)CCO4)cc2[nH]1` stands 250 to 1000 nM; under `Cc1nc2ccc(-c3ccc4c(c3)CN(c3ncnc5c(F)cccc35)CCO4)cc2[nH]1`, 50 to 250 nM. As for `COc1ccc2c(N3CCOc4ccc(-c5ccc(-c6ncc[nH]6)cc5)cc4C3)nc(C)nc2c1`, the 50% inhibitory concentration (IC50) is at most 10 nM.

In turn, `Cc1nc(CN(C)C)nc(N2CCOc3ccc(-c4cnc5sc(N)nc5c4)cc3C2)c1Cl` registered an IC50 of 10 to 50 nM. The value for `COc1c(OCC(C)C)ccc2c(N3CCOc4ccc(-c5ccc6nc(C)[nH]c6c5)cc4C3)ncnc12` was 50 to 250 nM; that for `Cc1nc2ccc(-c3ccc4c(c3)CN(c3ncnc5ccc(OCC#N)cc35)CCO4)cc2[nH]1` was 10 to 50 nM.

For the molecule `CCNc1nc2ccc(-c3ccc4c(c3)CN(c3nc(CC)nc5ccccc35)CCO4)cc2[nH]1`, the half-maximal inhibitory concentration (IC50) fell in the range of 10 to 50 nM.

`CC1(C)CCc2ncnc(N3CCOc4ccc(-c5cnc(N)c(S(=O)(=O)NCC6CCCCN6)c5)cc4C3)c2C1` (stereo not drawn) gave an IC50 of 50 to 250 nM. The value for `COc1ccc2ncnc(N3CCOc4ccc(-c5ccc6nc(C)[nH]c6c5)cc4C3)c2c1` was 50 to 250 nM; that for `CC1(C)CCc2ncnc(N3CCOc4ccc(-c5ccc6nc(N)[nH]c6c5)cc4C3)c2C1` was 50 to 250 nM; that for `Cc1nc2ccc(-c3ccc4c(c3)CN(c3ncnc(C)c3Cc3ccc(F)c(F)c3)CCO4)cc2[nH]1` was 10 to 50 nM. The value for `Cc1ncnc(N2CCOc3ccc(-c4ccc5nc(N)[nH]c5n4)cc3C2)c1Cc1ccc(F)cc1` was 10 to 50 nM; that for `Cc1nc(C)c(C(C)C)c(N2CCOc3ccc(-c4cnc5nc(C)[nH]c5c4)cc3C2)n1` was 10 to 50 nM. Molecule `CN(C)Cc1nc2ncc(-c3ccc4c(c3)CN(c3ncnc5c3CC(C)(C)CC5)CCO4)cc2[nH]1` gave a 50% inhibitory concentration (IC50) of 250 to 1000 nM. Under `COc1ccc2c(N3CCOc4ccc(-c5ccc6nc(N)[nH]c6c5)cc4C3)nc(C)nc2c1` stands at most 10 nM; under `COCCOCc1nc2c(c(N3CCOc4ccc(-c5cnc6nc(C)[nH]c6c5)cc4C3)n1)CC(C)(C)CC2`, 10 to 50 nM; under `CC[C@H]1CCc2c(nc(CN(C)C)nc2N2CCOc3ccc(-c4cnc5nc(C)[nH]c5c4)cc3C2)C1`, at most 10 nM. As to `CC(C)(O)CNS(=O)(=O)c1cc(-c2ccc3c(c2)CN(c2ncnc4c2CC(C)(C)CC4)CCO3)cnc1N`, the IC50 is 10 to 50 nM.

In turn, `Cc1nc2ccc(-c3ccc4c(c3)CN(c3ncnc(C)c3Cc3ccc(C(F)(F)F)cc3)CCO4)cc2[nH]1` returned an IC50 of 10 to 50 nM. Molecule `Cc1nc2cc(-c3ccc4c(c3)CN(c3nc(CNCCF)nc(C)c3C(C)C)CCO4)ccc2[nH]1` displayed a concentration for half-maximal inhibition (IC50) of 10 to 50 nM. Under `CC1(C)CCc2ncnc(N3CCOc4ccc(-c5cnc(N)c(S(=O)(=O)N6CCCC6)c5)cc4C3)c2C1` stands 50 to 250 nM; under `Cc1nc2cc(-c3ccc4c(c3)CN(c3nc(CN(C)C)nc(C)c3Br)CCO4)ccc2[nH]1`, 50 to 250 nM; under `Cc1nc2ccc(-c3ccc4c(c3)CN(c3ncnc5c(C(F)(F)F)cccc35)CCO4)cc2[nH]1`, 250 to 1000 nM. Under `CCNc1nc2ccc(-c3ccc4c(c3)CN(c3ncnc5cc(OC)c(OC)cc35)CCO4)cc2[nH]1` stands 10 to 50 nM; under `CC(=O)Nc1nc2cc(-c3ccc4c(c3)CN(c3nc(CN(C)C)nc5c3CC(C)(C)CC5)CCO4)cnc2s1`, 10 to 50 nM; under `Nc1nc2ncc(-c3ccc4c(c3)CN(c3ncnc5ccc(F)cc35)CCO4)cc2[nH]1`, at most 10 nM. Consider `CCc1c(C)ncnc1N1CCOc2ccc(-c3cnc4nc(C)[nH]c4c3)cc2C1`, for which the IC50 fell in the range of 50 to 250 nM.

`Cc1ncnc(N2CCOc3ccc(-c4cnc5nc[nH]c5c4)cc3C2)c1Cc1ccc(F)cc1`: the IC50 fell in the range of 10 to 50 nM. As for `COC(=O)Nc1nc2ccc(-c3ccc4c(c3)CN(c3ncnc5ccc(OC)cc35)CCO4)cc2[nH]1`, the IC50 was 10 to 50 nM.

Source of the values: the Kinase Knowledgebase extract (Sharma et al. 2016).
